Series [1] has as its system HIF-HRE transcriptional activity in SKN:HRE-MLuc cells (reflects FIH-1 inhibition). In words: HIF activity under hypoxia, HRE-MLuc luciferase reporter assay. The conditions noted are these: for activation at 100 µM / minimal effective concentration: Homo sapiens, SKN:HRE-MLuc cells, 3% O2, 24 h; for activation at 100 µM: read-out: 100 μM Activity (RLU intensity at 100 μM stimulation compared with the positive control DMOG); for minimal effective concentration: doses 100, 25, 6.3, 1.6 μM, DMOG 100 μM as positive control, read-out: 25% Activity (lower dose limit showing 25% of the RLU intensity of the positive control DMOG); for HIF activity (HRE-MLuc reporter), result in words: hypoxic conditions (3% O2), 24 h, reference compounds at 100 μM. Type of series: cell-based, human. As to the method: To evaluate HIF transactivation following FIH-1 inhibition […], we employed a luciferase reporter assay system in the human neuroblastoma cell line SK-N-BE(2)c. […] Hereafter these HRE reporter cells were designated SKN:HRE-MLuc cells.
SKN:HRE-MLuc (4 × 10^4) were incubated for 24 h on a 96 well culture plate. The medium was replaced with complete media and the test compounds (100, 25, 6.3 and 1.6 μM). DMSO (0.1%) was used as a vehicle control, DMOG (100 μM) and FG4592 (100 μM) were used as a PHDs or FIH-1 inhibitor. The cells were incubated for 24 h under a humidified atmosphere of 5% CO2 and 3% O2 at 37 °C. After incubation, the MLuc activity in culture media was measured with luciferase substrate (Takara, Shiga, Japan) by LB960 luminometer (Berthold, Wildbad, Germany). The HIF activity was calculated as the MLuc intensity, based on the vehicle and positive controls. The lower limit dose out of 100 μM, 25 μM, 6.3 μM, 1.6 μM was listed in Table 1 and Table 2, where 25% RLU intensity was measured using DMOG as a positive control.
A general note: In a reporter assay the amount or activity of a reporter protein is the signal.

Another series concerns SKN:HRE-MLuc cells. In words: MTS assay (cellular toxicity). Format: cell-based, human. As to conditions: for IC50: Homo sapiens, MTS assay. The text has this:
Next, we evaluated the activation of HIF by furan- and thiophene-2-carbonyl amino acid derivatives using the evaluation methods described above. Simultaneously, we investigated cellular toxicity for those derivatives with a 3-(4,5-dimethylthiazol-2-yl)-5-(3-carboxymethoxyphenyl)-2-(4-sulfophenyl)-2H-tetrazolium (MTS) assay. To indicate cellular membrane permeability, the partition coefficients, which are frequently represented by calculated logP (clogP) are listed in Table 1 and Table 2.
Cellular toxicity was measured using the CellTiter 96® Aqueous One Solution Cell Proliferation Assay kit (Promega, Madison, WI, USA). The cells were stimulated with each compound and treated with the CellTiter solution. After incubation for 3 h, the absorbance of the solutions at 492 nm was measured by Multiskan FC (Thermo Fisher Scientific, Waltham, MS, USA). As a negative control, wells with culture media were used. Wells treated with DMSO (0.1%) were used as a positive control. The IC50 values were determined using these controls.

Series [2] concerns HIF-HRE transcriptional activity in SKN:HRE-MLuc cells (PHD inhibition). In words: HIF activity under normoxia, HRE-MLuc luciferase reporter assay. Type of series: cell-based, human. As to conditions: normoxic conditions, 100 μM, 24 h. The text has this: We next measured HIF transactivity of FIH-1 inhibitors under normoxic conditions to confirm whether these inhibitors stabilized HIF via inhibiting PHD. Under normoxic conditions, inhibition of PHD dramatically activated HRE reporter. In contrast, when PHD was inhibited under hypoxic conditions, the rate of activation of the HRE reporter was low because hypoxia already partially activated the HRE reporter. The compounds showing HIF activation under hypoxic conditions (compounds 7, 9–11, 15–18, 28, 30, and 38) were evaluated by the luciferase assays in SKN:HRE-MLuc cells under normoxic conditions (Figure 6).
SKN:HRE-MLuc (4 × 10^4) were incubated for 24 h on a 96 well culture plate. The medium was replaced with complete media and the tested compounds (100 μM). DMSO (0.1%) was used as a negative control, and DMOG (100 μM) was used as a positive control. The cells were incubated for 24 h under a humidified atmosphere of 5% CO2 at 37 °C. After incubation, the MLuc activity in culture media was measured with the method descried above.

Series [3] concerns CA9 mRNA in SK-N-BE(2)c cells. As to the kind of experiment: Quantitative RT-PCR of HIF target gene CA9. Format: cell-based, human. The conditions noted are these: 100 μM, 3% O2, SK-N-BE(2)c cells. The procedure: (§1) To confirm transactivation of HIF by our optimized compounds, the expression of HIF target genes was analyzed with quantitative polymerase chain reaction (PCR) in SK-N-BE(2)c cells. We attempted to analyze several HIF target genes including CA9, VEGF-α, EPO, and PHD3, under 3% O2 conditions.
(§2) Total RNA was extracted from cells using ISOGEN (Nippon Gene, Tokyo, Japan). cDNA syntheses were performed using random hexamer primers and SuperScript II Reverse Transcriptase (Thermo Fisher Scientific) following the manufacturer’s instructions. Quantitative reverse transcription polymerase-chain reaction (RT-PCR) analysis was performed as follows: amplification was done in an initial denaturing step at 96 °C for 2 min, followed by 35 cycles of PCR (96 °C for 1 min, 57 °C for 30 s, 72 °C for 30 s) using recombinant Taq polymerase (Takara, Otsu, Japan) with the respective primer pairs. For human carbonic anhydrase IX (CA9), 5′-CCTGGCTGCTGGTGACATCC-3′ and 5′-AAGGAAGTGGCATAATGAGC-3′. […] Data were analyzed using the comparative Ct method as means of relative quantification, and were normalized to an endogenous reference (β-actin) and relative to a calibrator (normalized Ct value obtained from cells treated with vehicle only). Data were expressed as 2^−ΔΔCt.

The test system of series [4] is HIF-1α mRNA in SK-N-BE(2)c cells. As to the kind of experiment: Quantitative RT-PCR of HIF-1α mRNA. Type of series: cell-based, human. As to conditions: 100 μM, 3% O2, SK-N-BE(2)c cells. As to the method:
as §1, §2

Series [5] has as its system HIF-HRE transcriptional activity in SKN:HRE-MLuc cells (reflects FIH-1 inhibition). In words: HIF activity under hypoxia, HRE-MLuc luciferase reporter assay. Type of series: cell-based, human. The conditions noted are these: 100 μM; normoxic or hypoxic (3% O2), control or FIH-1 siRNA transfectants, Figure 3c (A vs E, F, G, H).

Entries after “also recorded” stand apart in the source; their conditions may differ.

A word on the IC50: it is the point on the concentration scale where inhibition reaches its midpoint. A low value points to greater potency in that assay. Broadly, the melting point is the temperature of the solid-liquid transition. With `COC(=O)CNC(=O)c1ccc(-c2ccc(-c3ccccc3)cc2)s1` [Compound 31, Methyl (5-((1,1′-biphenyl)-4-yl)thiophene-2-carbonyl)glycinate], the melting point was in the range of 183 to 185 °C. Moreover, in series [1], the activation at 100 µM turned out to be 0%. In the series with SKN:HRE-MLuc cells, this compound came in with an IC50 above 100 µM.

Take `COC(=O)[C@H](Cc1c[nH]c2ccccc12)NC(=O)c1cc2ccccc2o1` [Compound 38, (S)-Methyl (benzofuran-2-carbonyl)tryptophanate]: in series [1], the activation at 100 µM came out at 25%; the minimal effective concentration came out at 25 µM; the “HIF activity (HRE-MLuc reporter), result in words” value (shortened to “HIF activity (HRE-MLuc reporter)”) is “stabilized HIF and transactivated the HRE-driven MLuc reporter”. For the same compound, the IC50 in the series with SKN:HRE-MLuc cells is above 100 µM. Also, the “HIF transactivation (HRE-MLuc reporter), result in words” value (from here on “HIF transactivation (HRE-MLuc reporter)”) in series [2] is listed as “did not elicit any HIF transactivation”.

As to `COC(=O)[C@H](Cc1ccccc1)NC(=O)c1ccc(C)o1` [Compound 7, (S)-Methyl (5-methylfuran-2-carbonyl)phenylalaninate], in series [1], the activation at 100 µM amounted to 22%; the minimal effective concentration was found to be 25 µM; the “HIF activity (HRE-MLuc reporter)” value was “stabilized HIF and transactivated the HRE-driven MLuc reporter”. The compound further showed an IC50 with SKN:HRE-MLuc cells above 100 µM. The “HIF transactivation (HRE-MLuc reporter)” value in series [2] is “did not elicit any HIF transactivation”.

`COC(=O)[C@H](Cc1c[nH]c2ccccc12)NC(=O)c1cc(-c2ccccc2)cs1` [Compound 28, (S)-Methyl (4-phenylthiophene-2-carbonyl)tryptophanate]: the melting point fell in the range of 150 to 152 °C. In addition, in series [1], the activation at 100 µM came out at 0%; the minimal effective concentration stood at 25 µM; the “HIF activity (HRE-MLuc reporter)” value is “stabilized HIF and transactivated the HRE-driven MLuc reporter”. Besides, the IC50 in the series with SKN:HRE-MLuc cells is above 100 µM. For the same compound, the “HIF transactivation (HRE-MLuc reporter)” value in series [2] is “did not elicit any HIF transactivation”.

Turning to `COC(=O)CNC(=O)c1cc(-c2ccccc2)cs1` [Compound 26, Methyl (4-phenylthiophene-2-carbonyl)glycinate], the melting point is 93 to 96 °C. Moreover, the activation at 100 µM in series [1] turned out to be 0%. Further, the IC50 in the series on SKN:HRE-MLuc cells was above 100 µM.

For the compound `Cc1nc(C(=O)NCC(=O)O)c(O)c2ccc(Oc3ccccc3)cc12` [FG4592, reference compound], the “HIF activity (HRE-MLuc reporter)” value in series [1] is “only slightly stabilized HIF”. In addition, in series [2], the “HIF transactivation (HRE-MLuc reporter)” value is reported as “stabilized HIF compared with vehicle-treated cells; also recorded: showed significant HRE reporter activity”.

In turn, `COC(=O)[C@H](Cc1ccc(O)cc1)NC(=O)c1cc(-c2ccccc2)cs1` [Compound 30, (S)-Methyl (4-phenylthiophene-2-carbonyl)tyrosinate] showed a melting point of 176 to 178 °C. Also, in series [1], the activation at 100 µM was determined as 0%; the minimal effective concentration stood at 6.3 µM; the “HIF activity (HRE-MLuc reporter)” value was “stabilized HIF and transactivated the HRE-driven MLuc reporter”. In the series with SKN:HRE-MLuc cells, the “Cellular toxicity in the MTS assays, result in words” value is “showed cellular toxicity” and inhibition was half-maximal at 75 µM (IC50). Further, the “HIF transactivation (HRE-MLuc reporter)” value in series [2] was “did not elicit any HIF transactivation”.

Consider `COC(=O)[C@H](Cc1c[nH]c2ccccc12)NC(=O)c1ccc(C)o1` [Compound 9, (S)-Methyl (5-methylfuran-2-carbonyl)tryptophanate], for which, in series [1], the activation at 100 µM stood at 22% and the minimal effective concentration was determined as 25 µM. The compound also showed an IC50 with SKN:HRE-MLuc cells above 100 µM. Also, in series [3], the “CA9 mRNA expression, result in words” value is given as “significantly elevated”. For the same compound, the “HIF-1α mRNA level, result in words” value in series [4] is “slightly suppressed by DMOG treatment but not by treatment with compound 9”.

Consider `CCOC(=O)[C@H](Cc1ccccc1)NC(=O)c1ccc(C)s1` [Compound 15, (S)-Ethyl (5-methylthiophene-2-carbonyl)phenylalaninate], for which, in series [1], the activation at 100 µM came to 12% and the minimal effective concentration was found to be 25 µM. Besides, in the series with SKN:HRE-MLuc cells, the IC50 was above 100 µM.

For the compound `CCOC(=O)[C@H](Cc1ccccc1)NC(=O)c1cc(-c2ccccc2)cs1` [Compound 27, (S)-Ethyl (4-phenylthiophene-2-carbonyl)phenylalaninate], the melting point lay within 94 to 96 °C. For the same compound, the activation at 100 µM in series [1] amounted to 2%. In the series with SKN:HRE-MLuc cells, the IC50 is above 100 µM.

On to `COC(=O)CNC(=O)c1ccc(-c2ccc(Oc3ccccc3)cc2)s1` [Compound 33, Methyl (5-(4-phenoxyphenyl)thiophene-2-carbonyl)glycinate], for which the activation at 100 µM in series [1] was found to be 0%. Moreover, the 50% inhibitory concentration (IC50) in the series on SKN:HRE-MLuc cells was above 100 µM.

As for `COC(=O)CNC(=O)C(=O)OC` [DMOG, dimethyloxalyl glycine, reference compound], the “HIF-1α mRNA level, result in words” value in series [4] was “slightly suppressed”. Moreover, the “HIF stabilization activity (HRE-MLuc reporter), result in words” value in series [5] is “higher HIF stabilization activity”.

In the case of `COC(=O)CNC(=O)c1ccco1` [Compound 1, Methyl (furan-2-carbonyl)glycinate], in series [1], the activation at 100 µM worked out at 20%; the minimal effective concentration was 25 µM; the “HIF activity (HRE-MLuc reporter)” value is “stabilized HIF and transactivated the HRE-driven MLuc reporter”. In addition, the half-maximal inhibitory concentration (IC50) in the series with SKN:HRE-MLuc cells is above 100 µM.

As for `C[C@H](NC(=O)c1ccc(-c2ccccc2)s1)C(=O)O` [Compound 21, (S)-(5-Phenylthiophene-2-carbonyl)alanine], the activation at 100 µM in series [1] turned out to be 0%. In addition, the IC50 in the series with SKN:HRE-MLuc cells was above 100 µM.

Compound `COC(=O)[C@@H](Cc1c[nH]c2ccccc12)NC(=O)c1cc(-c2ccccc2)cs1` [Compound 29, (R)-Methyl (4-phenylthiophene-2-carbonyl)tryptophanate] returned a melting point of 145 to 149 °C. Also, the activation at 100 µM in series [1] was determined as 0%. For the same compound, in the series on SKN:HRE-MLuc cells, the IC50 is above 100 µM.

Source of the values: publication PMC6017830, “Furan- and Thiophene-2-Carbonyl Amino Acid Derivatives Activate Hypoxia-Inducible Factor via Inhibition of Factor Inhibiting Hypoxia-Inducible Factor-1” (Molecules : A Journal of Synthetic Chemistry and Natural …, 2018).
